Assay results from patent publication US8642628B2, “Pyrrole inhibitors of S-nitrosoglutathione reductase” (N30 Pharmaceuticals, Inc., priority 2008, dated 2014).

What follows are molecules tested against T1, GSNOR (GSNO Reductase) (Homo sapiens, UniProt P11766) (assay: GSNOR assay (inhibition of GSNOR activity, change in 340 nm absorbance)). Details: 100 mM NaPO4 pH 7.4, 0.240 mM GSNO, 0.300 mM NADH, 0.5 μg/mL GSNO Reductase, 1% DMSO, 25° C.; values given as 'about' bounds; read-out: IC50 (GSNOR inhibitor activity).
T1 construct: made in house; host or cells: E. coli (arabinose-induced)
T1 sequence (P11766 whole entry): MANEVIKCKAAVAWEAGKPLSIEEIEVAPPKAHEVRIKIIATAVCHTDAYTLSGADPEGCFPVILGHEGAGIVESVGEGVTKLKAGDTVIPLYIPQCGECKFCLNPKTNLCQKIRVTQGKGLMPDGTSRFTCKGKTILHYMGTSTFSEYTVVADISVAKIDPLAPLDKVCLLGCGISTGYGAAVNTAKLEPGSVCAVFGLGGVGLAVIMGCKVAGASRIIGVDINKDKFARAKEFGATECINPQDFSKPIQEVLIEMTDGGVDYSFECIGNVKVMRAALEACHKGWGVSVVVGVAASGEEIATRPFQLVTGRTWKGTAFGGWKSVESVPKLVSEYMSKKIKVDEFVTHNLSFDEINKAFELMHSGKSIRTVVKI
Format: biochemical
Experimental: Various compounds were tested in vitro for their ability to inhibit GSNOR activity. […] GSNOR expression and purification is described in Biochemistry 2000, 39, 10720-10729.
GSNOR fermentation: Pre-cultures were grown from stabs of a GSNOR glycerol stock in 2XYT media containing 100 ug/ml ampicillin after an overnight incubation at 37° C. Cells were then added to fresh 2XYT (4L) containing ampicillin and grown to an OD (A600) of 0.6-0.9 at 37° C. before induction. GSNOR expression was induced with 0.1% arabinose in an overnight incubation at 20° C.
GSNOR Purification: E. coli cell paste was lysed by nitrogen cavitation and the clarified lysate purified by Ni affinity chromatography on an AKTA FPLC (Amersham Pharmacia). The column was eluted in 20 mM Tris pH 8.0/250 mM NaCl with a 0-500 mM imidazole gradient. […] GSNOR was recovered in the flowthrough fraction and for crystallography is further purified by Q-Sepharose and Heparin flowthrough chromatography in 20 mM Tris pH 8.0, 1 mM DTT, 10 uM ZnSO4.
GSNOR assay: GSNO and Enzyme/NADH Solutions are made up fresh each day. The Solutions are filtered and allowed to warm to room temperature. GSNO Solution: 100 mM NaPO4 (pH 7.4), 0.480 mM GSNO. 396 μL of GSNO Solution is added to a cuvette followed by 8 μL of test compound in DMSO (or DMSO only for full reaction control) and mixed with the pipette tip. Compounds to be tested are made up at a stock concentration of 10 mM in 100% DMSO. 2 fold serial dilutions are done in 100% DMSO. 8 μL of each dilution are added to an assay so that the final concentration of DMSO in the assay is 1%. The concentrations of compounds tested range from 100 to 0.003 μM. Enzyme/NADH Solution: 100 mM NaPO4 (pH 7.4), 0.600 mM NADH, 1.0 μg/mL GSNO Reductase. 396 μL of the Enzyme/NADH Solution is added to the cuvette to start the reaction. The cuvette is placed in the Cary 3E UV/Visible Spectrophotometer and the change in 340 nm absorbance/min at 25° C. is recorded for 3 minutes. The assays are done in triplicate for each compound concentration. IC50's for each compound are calculated using the standard curve analysis in the Enzyme Kinetics Module of SigmaPlot.
Final assay conditions: 100 mM NaPO4, pH 7.4, 0.240 mM GSNO, 0.300 mM NADH, 0.5 μg/mL GSNO Reductase and 1% DMSO. Final volume: 800 μL/cuvette.

Structure (SMILES) | IC50
COc1ccc(-c2ccn(-c3ccc(O)cn3)c2-c2ccc(C(N)=O)cc2C)cc1 [Example 26, 4-(1-(5-hydroxypyridin-2-yl)-3-(4-methoxyphenyl)-1H-pyrrol-2-yl)-3-methylbenzamide] | < 5 µM
COc1ccc(-c2ccn(-c3ccc(C(=O)O)cc3)c2-c2ccc(C(N)=O)cc2C)cc1 [Example 19, 4-(2-(4-carbamoyl-2-methylphenyl)-3-(4-methoxyphenyl)-1H-pyrrol-1-yl)benzoic acid] | < 1 µM
COc1cc(Cl)ccc1-n1ccc(CCC(=O)O)c1-c1ccc(C(N)=O)cc1C [Example 14, 3-(2-(4-carbamoyl-2-methylphenyl)-1-(4-chloro-2-methoxyphenyl)-1H-pyrrol-3-yl)propanoic acid] | < 1 µM
Cc1cc(C(N)=O)ccc1-c1c(-c2ccc(-n3ccnc3C)cc2)ccn1-c1ccc(O)c(F)c1 [Example 29, 4-(1-(3-fluoro-4-hydroxyphenyl)-3-(4-(2-methyl-1H-imidazol-1-yl)phenyl)-1H-pyrrol-2-yl)-3-methylbenzamide] | < 1 µM
COc1ccc(-c2ccn(CC(F)(F)C(=O)O)c2-c2ccc(C(N)=O)cc2C)cc1 [Example 9, 3-(2-(4-carbamoyl-2-methylphenyl)-3-(4-methoxyphenyl)-1H-pyrrol-1-yl)-2,2-difluoropropanoic acid] | < 5 µM
COc1ccc(-c2ccn(-c3cc(F)c(O)c(F)c3)c2-c2ccc(C(N)=O)cc2C)cc1 [Example 25, 4-(1-(3,5-difluoro-4-hydroxyphenyl)-3-(4-methoxyphenyl)-1H-pyrrol-2-yl)-3-methylbenzamide] | < 1 µM
COc1ccc(-c2ccn(-c3ccc(C(=O)O)c(O)c3)c2-c2ccc(C(N)=O)cc2C)cc1 [Example 15, 4-(2-(4-carbamoyl-2-methylphenyl)-3-(4-methoxyphenyl)-1H-pyrrol-1-yl)-2-hydroxybenzoic acid] | < 1 µM
COc1ccc(-c2ccn(-c3ccc(C(=O)O)c(F)c3)c2-c2ccc(C(N)=O)cc2C)cc1 [Example 16, 4-(2-(4-carbamoyl-2-methylphenyl)-3-(4-methoxyphenyl)-1H-pyrrol-1-yl)-2-fluorobenzoic acid] | < 5 µM

Next, values leading:

IC50 | Structure (SMILES)
< 1 µM | COc1ccc(-c2ccn(-c3ccc(O)c(F)c3)c2-c2ccc(C(N)=O)cc2C)cc1 [Example 23, 4-(1-(3-fluoro-4-hydroxyphenyl)-3-(4-methoxyphenyl)-1H-pyrrol-2-yl)-3-methylbenzamide]
< 1 µM | COc1ccc(-n2ccc(CCC(=O)O)c2-c2ccc(C(N)=O)cc2C)cc1 [Example 6, 3-(2-(4-carbamoyl-2-methylphenyl)-1-(4-methoxyphenyl)-1H-pyrrol-3-yl)propanoic acid]
< 1 µM | Cc1cc(C(N)=O)ccc1-c1c(-c2ccc(-n3ccnc3)cc2)ccn1CCC(=O)O [Example 5, 3-(3-(4-(1H-imidazol-1-yl)phenyl)-2-(4-carbamoyl-2-methylphenyl)-1H-pyrrol-1-yl)propanoic acid]
< 1 µM | COc1ccc(-c2ccn(CCC(=O)O)c2-c2ccc(C(N)=O)cc2C)cc1 [Example 1, 3-(2-(4-carbamoyl-2-methylphenyl)-3-(4-methoxyphenyl)-1H-pyrrol-1-yl)propanoic acid]
< 1 µM | Cc1cc(C(N)=O)ccc1-c1c(-c2ccc(-n3ccnc3C)cc2)ccn1-c1cc(F)c(O)c(F)c1 [Example 30, 4-(1-(3,5-difluoro-4-hydroxyphenyl)-3-(4-(2-methyl-1H-imidazol-1-yl)phenyl)-1H-pyrrol-2-yl)-3-methylbenzamide]
< 5 µM | COc1ccc(-c2ccn(-c3ccc(C(=O)O)c(Cl)c3)c2-c2ccc(C(N)=O)cc2C)cc1 [Example 20, 4-(2-(4-carbamoyl-2-methylphenyl)-3-(4-methoxyphenyl)-1H-pyrrol-1-yl)-2-chlorobenzoic acid]
< 1 µM | Cc1cc(C(N)=O)ccc1-c1c(CCC(=O)O)ccn1-c1ccc(-n2ccnc2)cc1 [Example 13, 3-(1-(4-(1H-imidazol-1-yl)phenyl)-2-(4-carbamoyl-2-methylphenyl)-1H-pyrrol-3-yl)propanoic acid]
< 5 µM | COc1ccc(-c2ccn(CC(C)C(=O)O)c2-c2ccc(C(N)=O)cc2C)cc1 (stereo not drawn) [Example 3, 3-(2-(4-carbamoyl-2-methylphenyl)-3-(4-methoxyphenyl)-1H-pyrrol-1-yl)-2-methylpropanoic acid]
< 1 µM | COc1ccc(-c2ccn(-c3ccc(O)c(C(=O)O)c3)c2-c2ccc(C(N)=O)cc2C)cc1 [Example 27, 5-(2-(4-carbamoyl-2-methylphenyl)-3-(4-methoxyphenyl)-1H-pyrrol-1-yl)-2-hydroxybenzoic acid]
< 1 µM | COc1ccc(-c2ccn(-c3ccc(O)c([N+](=O)[O-])c3)c2-c2ccc(C(N)=O)cc2C)cc1 [Example 17, 4-(1-(4-hydroxy-3-nitrophenyl)-3-(4-methoxyphenyl)-1H-pyrrol-2-yl)-3-methylbenzamide]
